{
  "source": "paper PMC8145986",
  "about": "“In Vitro Enzymatic and Kinetic Studies, and In Silico Drug-Receptor Interactions, and Drug-Like Profiling of the 5-Styrylbenzamide Derivatives as Potential Cholinesterase and β-Secretase Inhibitors with Antioxidant Properties” (Antioxidants, 2021)",
  "key": {"[1]": {"target": "T1, BChE (Homo sapiens, UniProt P06276)", "T1 construct": "purchased Cloud-Clone Corp. (via Biocom Africa (Pty) Ltd.)", "T1 sequence (P06276 29-602)": "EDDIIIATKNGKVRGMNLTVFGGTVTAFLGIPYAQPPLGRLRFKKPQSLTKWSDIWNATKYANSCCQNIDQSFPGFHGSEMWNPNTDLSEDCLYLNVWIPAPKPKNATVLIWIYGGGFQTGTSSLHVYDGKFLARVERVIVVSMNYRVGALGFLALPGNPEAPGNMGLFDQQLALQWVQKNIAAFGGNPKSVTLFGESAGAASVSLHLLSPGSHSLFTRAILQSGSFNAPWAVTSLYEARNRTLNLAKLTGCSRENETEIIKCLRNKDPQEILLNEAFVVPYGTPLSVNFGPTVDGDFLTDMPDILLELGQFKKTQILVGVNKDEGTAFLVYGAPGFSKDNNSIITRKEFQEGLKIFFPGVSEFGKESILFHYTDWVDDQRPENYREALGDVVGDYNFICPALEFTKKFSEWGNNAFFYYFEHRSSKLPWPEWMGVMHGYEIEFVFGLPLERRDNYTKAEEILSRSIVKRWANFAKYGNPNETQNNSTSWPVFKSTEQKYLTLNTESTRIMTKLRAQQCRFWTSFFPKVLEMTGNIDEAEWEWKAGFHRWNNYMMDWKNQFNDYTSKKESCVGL", "assay": "biochemical", "conditions": "mean ± SD of three independent experiments", "procedure": "The melting point values of the test compounds were recorded on a Thermocouple digital melting point apparatus (Mettler Toledo LLC, Columbus, OH, USA). The infrared (IR) spectra were recorded using the thin-film method on a Bruker VERTEX 70 FT-IR Spectrometer (Bruker Optics, Billerica, MA, USA) equipped with an ATR (diamond attenuated total reflectance) accessory. Merck kieselgel 60 (0.063–0.200 mm) (Merck KGaA, Frankfurt, Germany) was used as a stationary phase for column chromatography. The ^1H-NMR and ^13C-NMR spectra of the prepared compounds were obtained as deuterated dimethyl sulfoxide ((CD3)2SO) solutions using Agilent 500 MHz NMR spectrometer (Agilent Technologies, Oxford, UK) operating at 500 MHz and 125 MHz for ^1H and ^13C, respectively. The chemical shifts are quoted relative to tetramethylsilane (TMS) used as an internal reference standard (δ = 0.00 ppm) or a residual protonated solvent. The high-resolution mass spectra were recorded at an ionization potential of 70 eV using Micromass Autospec-TOF (double focusing high resolution) instrument (Waters Corp., Milford, MA, USA). The synthesis and analytical data for 2-amino-5-iodobenzamide (1) have been reported in our previous study. Recombinant human AChE (BioLegend) and BChE (Cloud-Clone Corp.) were purchased via Biocom Africa (Pty) Ltd. (Centurion, Pretoria, South Africa).\nAChE and BChE were used to determine cholinesterase activities spectrophotometrically using […] as substrates, respectively, following a modification of the Ellman’s method, as described in our previous study, and the reactions were performed in triplicate at 37 °C in a 96-well plate. […] A multi-channel pipette was used for the addition of reagents to the wells.\nA total of 8.0 μL of the test compound and 2.0 μL of BChE (0.02 mg/mL) was added to each of the designated wells of the 96-well plate, and the mixtures were incubated at room temperature for 30 min. Tris buffer (70 μL) was added to each well containing the reaction mixture and incubation was continued for a further 10 min at this temperature, which was followed by the addition of 10 μL solution of 5,5′-dithiobis-(2-nitrobenzoic acid) (DTNB) (3 mM in Tris buffer, 50 mM, pH 7.7) and butyrylcholine iodide (5 mM in Tris buffer, 50 mM, pH 7.7) to each well to initiate the reaction. […] The IC50 and standard deviation values using the Graph Pad Prism."}, "[2]": {"assay": "Nitric oxide radical scavenging assay (Griess reaction)", "conditions": "NO radical scavenging", "procedure": "Nitric oxide was generated from sodium nitroprusside and measured by Griess’ reaction following the literature method. The experiment was done in triplicate with ascorbic acid (vitamin C) used as a positive control for the assay. In total, 50 μL of each of the test compounds and the positive control at various concentrations (0.1, 0.5, 1.0, 5.0, and 10.0 μM in methanol) were added to each designated well of the 96 well plate. A total of 50 μL of sodium nitroprusside (10 mM) prepared in saline phosphate buffer (pH = 7.4) was then added to each well and the reaction mixture incubated at room temperature for 3 h. Afterward, 300 μL of the Griess reagent (a mixture of 0.2% N-(1-naphthyl)ethylenediamine dihydrochloride and 2% sulfanilamide in […]) was added to each well and absorbance was read at 546 nm using a Varioskan flash microplate spectrophotometer reader."}, "[3]": {"target": "T1, BChE", "assay": "Enzyme kinetic study against BChE (Lineweaver-Burk and Dixon plots)", "type": "biochemical", "procedure": "The AChE and BChE enzyme kinetic studies were performed in triplicate in a 96-well plate following a procedure described in our previous study. Varying concentrations of 2a or 3c (0, 2.5, 3.5, and 5 μM) and AChI or BChI (0.1, 0.5, 2.5, and 5 mM) were used for the kinetic assays. The absorbances were measured after every 1 s for 10 s at a wavelength of 412 nm using a microplate spectrophotometer reader. The Lineweaver–Burk plots (plot of the inverse of velocity (1/v) against the inverse of the substrate concentration (1/[S])) were constructed."}, "[4]": {"target": "T2, β-secretase (Homo sapiens, UniProt P56817)", "T2 construct": "purchased Thermo Fisher Scientific Corporation; host or cells: baculovirus-expressed", "T2 sequence (P56817 46-501)": "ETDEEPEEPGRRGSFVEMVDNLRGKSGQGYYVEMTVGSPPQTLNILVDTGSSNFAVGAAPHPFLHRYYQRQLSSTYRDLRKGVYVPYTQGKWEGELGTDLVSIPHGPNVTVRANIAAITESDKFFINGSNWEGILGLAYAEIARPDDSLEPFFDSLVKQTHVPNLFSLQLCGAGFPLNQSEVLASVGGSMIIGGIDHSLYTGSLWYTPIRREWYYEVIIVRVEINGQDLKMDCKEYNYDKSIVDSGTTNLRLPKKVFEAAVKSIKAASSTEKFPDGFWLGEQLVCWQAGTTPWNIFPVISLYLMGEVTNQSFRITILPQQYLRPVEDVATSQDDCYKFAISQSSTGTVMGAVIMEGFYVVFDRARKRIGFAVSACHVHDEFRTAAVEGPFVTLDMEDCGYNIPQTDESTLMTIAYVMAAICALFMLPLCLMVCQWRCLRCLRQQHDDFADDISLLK", "assay": "Enzyme kinetic study on β-secretase (Lineweaver-Burk and Dixon plots)", "type": "biochemical", "procedure": "Compounds 2a and 3b were subjected to kinetic studies on β-secretase using substrate concentrations 150, 300, and 450 nM at increasing inhibitor concentrations (0, 4, 8, and 16 μM) following a method reported before. The fluorescence readings were recorded after every 1 s for 10 s at excitation and emission values of 545 nm and 590 nm, respectively. The Lineweaver–Burk plots (plots of the inverse of velocity against the inverse of the substrate concentration) were constructed to assess changes in enzymatic parameters. The Dixon plots were also prepared to determine the inhibitor constants, Ki."}, "[5]": {"assay": "Cytotoxicity (MTT assay) on Vero cells", "conditions": "monkey, Vero cells (normal monkey kidney cells)", "procedure": "(§1) The cytotoxicity activity of the compounds was evaluated using the 3-(4,5-dimethylthiazol-2-yl)-2,5-diphenyltetrazolium bromide (MTT) assay following a modification of a method by Mosmann. Normal monkey kidney cells (Vero cells) and adeno-carcinomic human epithelial cells (A549 cells) were maintained in Dulbecco’s modified Eagle’s medium (DMEM, Gibco) supplemented with 10% fetal bovine serum (FBS) and 1% penicillin/streptomycin in culture flasks and incubated at 37 °C in 5% CO2. […] Cells were seeded at 1 × 10^5 cells/well and incubated overnight to allow cell attachment. After 24 h, treatments were administered with different concentrations (0, 2.5, 5, 10, 25, 50, and 100 μM) of the compounds and doxorubicin (positive control). After 24 h of incubation, 20 μL of the MTT solution (5 mg/mL) was added in all the wells, which was followed by 4 h of incubation."}, "[6]": {"assay": "in vitro", "conditions": "human, A549 cells (adeno-carcinomic human epithelial cells)", "procedure": "as §1"}, "[7]": {"tested_on": "Vero cells", "assay": "LPS-induced ROS production in Vero cells (H2DCF-DA)", "type": "cell-based, monkey", "conditions": "10 μM compound, LPS 1 μg/mL, 24 h (Figure 9a)", "procedure": "Mitochondrial ROS levels in Vero and A549 cell lines was measured using the 2′,7′-dichlorofluorescin diacetate (H2DCF-DA) (Sigma-Aldrich, St. Louis, MO, USA, Merck, Darmstadt, Germany), fluorescent probe. Cells (1 × 10^5) were seeded in 96 well plates and incubated overnight at 37 °C in 5% CO2. A minimum non-toxic concentration (10 μM) of compounds (2a and 3b) was added separately as treatment and further incubated for an hour, after which LPS (1 μg/mL) was added to induce the production of ROS. After 24 h of incubation, the media was aspirated, cells were rinsed with PBS, and followed by the addition of H2DCF-DA (10 μM) for 30 min in the dark. The absorbance of the fluorescence was measured using a microplate reader (VarioSkan Flash, Thermo Fisher Scientific, Finland) at 485 and 535 nm values of excitation and emission, respectively. Data was processed and analysed using ANOVA, which was followed by Duncan’s multiple comparison test."}},
  "data": [
    {"smiles": "NC(=O)c1cc(/C=C/c2ccccc2)ccc1N", "note": "[Compound 2a, (E)-2-Amino-5-styrylbenzamide]", "values": [
      {"measurement": "IC50", "setting": "[1]", "result": "4.7 ± 0.32", "unit": "µM"},
      {"measurement": "IC50", "setting": "[2]", "result": "10.3 ± 0.12", "unit": "µM"},
      {"measurement": "mode of inhibition BChE", "setting": "[3]", "result": "mixed mode"},
      {"measurement": "Ki", "setting": "[3]; read-out: Ki (Dixon plot) BChE", "result": 2, "unit": "µM"},
      {"measurement": "mode of inhibition β-secretase", "setting": "[4]", "result": "mixed mode"},
      {"measurement": "Ki", "setting": "[4]; read-out: Ki (Dixon plot) β-secretase", "result": "3.44 ± 0.3", "unit": "µM"},
      {"measurement": "IC50 at 24 h", "setting": "[5]", "result": "163 ± 0.55", "unit": "µM"},
      {"measurement": "IC50 at 24 h", "setting": "[6]", "result": "35.4 ± 0.13", "unit": "µM"},
      {"measurement": "suppression of LPS-induced ROS", "setting": "[7]", "result": "about 60%"}
    ]}
  ]
}
